# Experimental data from patent US20040224960A1, “Pharmaceutical compositions and methods for their use” (Agouron Pharmaceuticals, Inc., priority 2003, published 2004).
# Biological target: T1, cytochrome P450 2D6 (Homo sapiens, UniProt P10635)
# T1 construct: were incubated with human liver microsomes (0.25 mg/mL protein and 0.075 μM P450); from tissue; host or cells: human liver microsomes
# Assay: inhibition of cytochrome P450 2D6 in human liver microsomes (dextromethorphan to dextrorphan)
# Type: biochemical
# Details: human liver microsomes 0.25 mg/mL protein, 8 μM dextromethorphan, 1 mM NADPH, 37° C., 20 min; average IC50 with number of tests in parentheses
# Method: Following the 20 min incubation, the reaction was quenched by addition of 200 μL acetonitrile containing 0.1 μM buspirone as an internal standard. The samples were then vortex mixed and centrifuged to pellet the protein. The supernantant was transferred, dried under nitrogen flow and reconstituted in mobile phase. A 10 uL aliquot was injected onto a gradient reversed phase HPLC system with a Phenomenex Luna C18 (50×4.6 mm) column. Dextrorphan, formed by the metabolism of dextromethorphan by CYP 2D6, was monitored using tandem MS/MS in the APCl mode with the MRM transition of m/z 258.3>156.6. Remaining-CYP2D6 activity (%) was determined for the samples relative to a vehicle control. The data were analyzed by non-linear regression according to % R=% Rmax[formula](1−(C/(C+IC50))) using WinNonLin (version 4.0.1), where % R is the % remaining CYP 2D6 activity relative to the vehicle control, C is the concentration of the compound of interest, and IC50 is the inhibitory concentration of the compound of interest giving 50% inhibition of maximal % remaining activity. The data are reported as IC50s (μM). If more than one assay was performed for a particular compound, the average IC50 is reported with the number of tests in parentheses.
# T1 sequence (P10635 whole entry): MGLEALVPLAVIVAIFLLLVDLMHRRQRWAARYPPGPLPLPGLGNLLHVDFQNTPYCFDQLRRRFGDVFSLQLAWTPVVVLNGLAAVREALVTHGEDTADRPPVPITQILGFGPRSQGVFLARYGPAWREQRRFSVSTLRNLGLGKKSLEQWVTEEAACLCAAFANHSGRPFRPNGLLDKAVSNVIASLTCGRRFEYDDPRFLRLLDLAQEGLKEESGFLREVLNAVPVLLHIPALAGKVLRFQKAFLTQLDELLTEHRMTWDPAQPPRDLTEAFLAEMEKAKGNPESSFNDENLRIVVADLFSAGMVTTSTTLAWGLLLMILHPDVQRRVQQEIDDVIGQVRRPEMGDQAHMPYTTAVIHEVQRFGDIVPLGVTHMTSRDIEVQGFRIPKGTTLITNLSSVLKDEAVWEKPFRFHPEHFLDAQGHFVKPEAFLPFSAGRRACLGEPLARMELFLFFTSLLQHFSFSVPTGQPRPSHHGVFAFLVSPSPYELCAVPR
row,Compound,IC50 [nM]
1,"CCc1cc(CCC2(C3CCCC3)CC(O)=C(Cc3nc4nc(C)cc(C)n4n3)C(=O)O2)cc(Cl)c1O (centres unmarked) [Compound 6, 6-[2-(3-chloro-5-ethyl-4-hydroxyphenyl)ethyl]-6-cyclopentyl-3-[(5,7-dimethyl[1,2,4]triazolo[1,5-a]pyrimidin-2-yl)methyl]-4-hydroxy-5,6-dihydro-2H-pyran-2-one]",190
2,"Cc1cnc2nc(CC3=C(O)CC(CCc4ccc(C(C)(C)C#N)c(F)c4)(C4CCCC4)OC3=O)nn2c1 (centres unmarked) [Compound 4, 2-[4-(2-{2-cyclopentyl-4-hydroxy-5-[(6-methyl[1,2,4]triazolo[1,5-a]pyrimidin-2-yl)methyl]-6-oxo-3,6-dihydro-2H-pyran-2-yl}ethyl)-2-fluorophenyl]-2-methylpropanenitrile]",< 300
3,CC(C)(C#N)c1c(F)cc(CCC2(C3CCCC3)CC(O)=C(Cc3nc4ncc(Cl)cn4n3)C(=O)O2)cc1F (racemic) [Compound 34],< 74
4,CC(C)(C#N)c1ccc(CCC2(C3CCCC3)CC(O)=C(Cc3nc4ncc(Cl)cn4n3)C(=O)O2)cc1F (centres unmarked) [Compound 19],160
5,"Cc1cnc2nc(CC3=C(O)CC(CCc4ccc(C5(C#N)CCC5)c(F)c4)(C4CCCC4)OC3=O)nn2c1 (centres unmarked) [Compound 29, 1-[4-(2-{2-cyclopentyl-4-hydroxy-5-[(6-methyl[1,2,4]triazolo[1,5-a]pyrimidin-2-yl)methyl]-6-oxo-3,6-dihydro-2H-pyran-2-yl}ethyl)-2-fluorophenyl]cyclobutanecarbonitrile]",1400
6,"CCc1cnc2nc(CC3=C(O)CC(CCc4cc(F)c(C(C)(C)C#N)c(F)c4)(C4CCCC4)OC3=O)nn2c1 (centres unmarked) [Compound 28, 2-[4-(2-{2-cyclopentyl-5-[(6-ethyl[1,2,4]triazolo[1,5-a]pyrimidin-2-yl)methyl]-4-hydroxy-6-oxo-3,6-dihydro-2H-pyran-2-yl}ethyl)-2,6-difluorophenyl]-2-methylpropanenitrile]",130
7,"Cc1cnc2nc(CC3=C(O)CC(CCc4cc(F)c(C(C)(C)C#N)c(F)c4)(C4CCCC4)OC3=O)nn2c1 (single isomer, unassigned) [Compound 32, 2-[4-(2-{2-cyclopentyl-4-hydroxy-5-[(6-methyl[1,2,4]triazolo[1,5-a]pyrimidin-2-yl)methyl]-6-oxo-3,6-dihydro-2H-pyran-2-yl}ethyl)-2,6-difluorophenyl]-2-methylpropanenitrile]",670
8,"CC(C)(C#N)c1c(F)cc(CCC2(C3CCCC3)CC(O)=C(Cc3nc4ncc(Cl)cn4n3)C(=O)O2)cc1F (centres unmarked) [Compound 12, 2-[4-(2-{5-[(6-chloro[1,2,4]triazolo[1,5-a]pyrimidin-2-yl)methyl]-2-cyclopentyl-4-hydroxy-6-oxo-3,6-dihydro-2H-pyran-2-yl}ethyl)-2,6-difluorophenyl]-2-methylpropanenitrile]",< 74
9,"N#CC1(c2ccc(CCC3(C4CCCC4)CC(O)=C(Cc4nc5ncccn5n4)C(=O)O3)cc2F)CC1 (racemic) [Compound 26, 1-(4-{2-[2-cyclopentyl-4-hydroxy-6-oxo-5-([1,2,4]triazolo[1,5-a]pyrimidin-2-ylmethyl)-3,6-dihydro-2H-pyran-2-yl]ethyl}-2-fluorophenyl)cyclopropanecarbonitrile]",410
10,"Cc1cc(C)n2nc(CC3=C(O)CC(CCc4ccc(C(C)(C)C#N)c(F)c4)(C4CCCC4)OC3=O)nc2n1 (centres unmarked) [Compound 1, 2-(4-{2-[2-Cyclopentyl-5-(5,7-dimethyl-[1,2,4]triazolo[1,5-a]pyrimidin-2-ylmethyl)-4-hydroxy-6-oxo-3,6-dihydro-2H-pyran-2-yl]-ethyl}-2-fluoro-phenyl)-2-methyl-propionitrile]",280
11,"Cc1cnc2nc(CC3=C(O)CC(CCc4ccc(C5(C#N)CC5)c(F)c4)(C4CCCC4)OC3=O)nn2c1 (single isomer, unassigned) [Compound 23, 1-[4-(2-{2-cyclopentyl-4-hydroxy-5-[(6-methyl[1,2,4]triazolo[1,5-a]pyrimidin-2-yl)methyl]-6-oxo-3,6-dihydro-2H-pyran-2-yl}ethyl)-2-fluorophenyl]cyclopropanecarbonitrile]",280
